Among the data in US7449447B2, “Peptidomimetic NS3-serine protease inhibitors of hepatitis C virus” (priority 2003, dated 2008) are Ki values, retold here.

Where only a bound is given, the exact number is not on record here.

T1 sequence (P26663 1013-1207, looked up, natural form): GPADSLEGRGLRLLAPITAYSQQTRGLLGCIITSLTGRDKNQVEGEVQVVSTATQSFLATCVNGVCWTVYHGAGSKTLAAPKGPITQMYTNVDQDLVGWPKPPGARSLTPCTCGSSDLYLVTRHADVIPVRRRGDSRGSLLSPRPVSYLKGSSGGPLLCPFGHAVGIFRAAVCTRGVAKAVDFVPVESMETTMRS

This test concerns the target T1, HCV NS3/NS4a serine protease (Hepatitis C virus genotype 1b, UniProt P26663).
T1 construct: amino terminus of the NS3 protease domain (amino acids 3-181) with a tetrapeptide linker; made in house; host or cells: E. coli
Kind of test: Spectrophotometric assay for HCV protease inhibitory activity (chromogenic ester substrates). The test is classed as biochemical, hepatitis C virus (strain 1b). To be noted: Ki, Table 3; rating; single chain NS4A21-32-GSGS-NS3 3-181 protease, 30° C., pH 6.5. An outline of the steps: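 Single-chain NS4A(21-32)-GSGS-NS3(3-181) protease (genotype 1b) from E. coli was used at 1.3 nM in 25 mM MOPS pH 6.5 with 300 mM NaCl, 30 °C and 4% DMSO. Chromogenic ester substrate cleavage was followed as PAP release at 370 nm over 60 min. Ki was derived from vo/vi versus [I] plots assuming competitive inhibition.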
The Ki is the equilibrium dissociation constant of an inhibitor or competing ligand from its target. For `Cc1ccc(CCNC(=O)[C@H](CC(F)F)NC(=O)[C@@H]2[C@@H]3[C@H](CN2C(=O)[C@@H](NC(=O)N[C@H](CN(C)S(C)(=O)=O)C(C)(C)C)C(C)(C)C)C3(C)C)c(C)c1` [Example 266], the Ki was below 100 nM. As to `Cc1ccc(CCNC(=O)[C@H](CC(F)F)NC(=O)[C@@H]2[C@@H]3[C@H](CN2C(=O)[C@@H](NC(=O)N[C@H](CN(C)S(C)(=O)=O)C(C)(C)C)C(C)(C)C)C3(C)C)cc1C` [Example 267], the inhibition constant Ki is below 100 nM. The figure for `CCc1ccc(CCNC(=O)[C@H](CC(F)F)NC(=O)[C@@H]2[C@@H]3[C@H](CN2C(=O)[C@@H](NC(=O)N[C@H](CN(C)S(C)(=O)=O)C(C)(C)C)C(C)(C)C)C3(C)C)cc1` [Example 268] is below 100 nM. For `COc1ccccc1CCNC(=O)[C@H](CC(F)F)NC(=O)[C@@H]1[C@@H]2[C@H](CN1C(=O)[C@@H](NC(=O)N[C@H](CN(C)S(C)(=O)=O)C(C)(C)C)C(C)(C)C)C2(C)C` [Example 269], the Ki was below 100 nM. The figure for `COc1cccc(CCNC(=O)[C@H](CC(F)F)NC(=O)[C@@H]2[C@@H]3[C@H](CN2C(=O)[C@@H](NC(=O)N[C@H](CN(C)S(C)(=O)=O)C(C)(C)C)C(C)(C)C)C3(C)C)c1` [Example 270] is below 100 nM; for `COc1ccc(CCNC(=O)[C@H](CC(F)F)NC(=O)[C@@H]2[C@@H]3[C@H](CN2C(=O)[C@@H](NC(=O)N[C@H](CN(C)S(C)(=O)=O)C(C)(C)C)C(C)(C)C)C3(C)C)cc1` [Example 271] it is below 100 nM. For `CN(C[C@@H](NC(=O)N[C@H](C(=O)N1C[C@H]2[C@@H]([C@H]1C(=O)N[C@@H](CC(F)F)C(=O)NCCc1ccc3c(c1)OCO3)C2(C)C)C(C)(C)C)C(C)(C)C)S(C)(=O)=O` [Example 272], the Ki is below 100 nM.

`CCOc1ccccc1CCNC(=O)[C@H](CC(F)F)NC(=O)[C@@H]1[C@@H]2[C@H](CN1C(=O)[C@@H](NC(=O)N[C@H](CN(C)S(C)(=O)=O)C(C)(C)C)C(C)(C)C)C2(C)C` [Example 273]: the Ki is below 100 nM.

For `CCOc1ccc(CCNC(=O)[C@H](CC(F)F)NC(=O)[C@@H]2[C@@H]3[C@H](CN2C(=O)[C@@H](NC(=O)N[C@H](CN(C)S(C)(=O)=O)C(C)(C)C)C(C)(C)C)C3(C)C)cc1` [Example 274], the Ki was below 100 nM. The figure for `CN(C[C@@H](NC(=O)N[C@H](C(=O)N1C[C@H]2[C@@H]([C@H]1C(=O)N[C@@H](CC(F)F)C(=O)NCCc1c(F)cccc1Cl)C2(C)C)C(C)(C)C)C(C)(C)C)S(C)(=O)=O` [Example 275] is below 100 nM. In the case of `CN(C[C@@H](NC(=O)N[C@H](C(=O)N1C[C@H]2[C@@H]([C@H]1C(=O)N[C@@H](CC(F)F)C(=O)NCCc1ccc(C(C)(C)C)cc1)C2(C)C)C(C)(C)C)C(C)(C)C)S(C)(=O)=O` [Example 276] it was below 100 nM; in that of `COc1cccc(CCNC(=O)[C@H](CC(F)F)NC(=O)[C@@H]2[C@@H]3[C@H](CN2C(=O)[C@@H](NC(=O)N[C@H](CN(C)S(C)(=O)=O)C(C)(C)C)C(C)(C)C)C3(C)C)c1OC` [Example 277], 100 to 500 nM. The figure for `COc1cc(CCNC(=O)[C@H](CC(F)F)NC(=O)[C@@H]2[C@@H]3[C@H](CN2C(=O)[C@@H](NC(=O)N[C@H](CN(C)S(C)(=O)=O)C(C)(C)C)C(C)(C)C)C3(C)C)cc(OC)c1` [Example 278] is 100 to 500 nM; for `COc1ccc(OC)c(CCNC(=O)[C@H](CC(F)F)NC(=O)[C@@H]2[C@@H]3[C@H](CN2C(=O)[C@@H](NC(=O)N[C@H](CN(C)S(C)(=O)=O)C(C)(C)C)C(C)(C)C)C3(C)C)c1` [Example 279] it is 100 to 500 nM; for `COc1ccc(CCNC(=O)[C@H](CC(F)F)NC(=O)[C@@H]2[C@@H]3[C@H](CN2C(=O)[C@@H](NC(=O)N[C@H](CN(C)S(C)(=O)=O)C(C)(C)C)C(C)(C)C)C3(C)C)cc1OC` [Example 280] it is below 100 nM. Consider `COc1ccc(CCNC(=O)[C@H](CC(F)F)NC(=O)[C@@H]2[C@@H]3[C@H](CN2C(=O)[C@@H](NC(=O)N[C@H](CN(C)S(C)(=O)=O)C(C)(C)C)C(C)(C)C)C3(C)C)cc1Cl` [Example 281], for which the Ki was below 100 nM. In the case of `CN(C[C@@H](NC(=O)N[C@H](C(=O)N1C[C@H]2[C@@H]([C@H]1C(=O)N[C@@H](CC(F)F)C(=O)NCCc1cccc(C(F)(F)F)c1)C2(C)C)C(C)(C)C)C(C)(C)C)S(C)(=O)=O` [Example 282] it was below 100 nM. Turning to `CN(C[C@@H](NC(=O)N[C@H](C(=O)N1C[C@H]2[C@@H]([C@H]1C(=O)N[C@@H](CC(F)F)C(=O)NCCc1ccc(Cl)cc1Cl)C2(C)C)C(C)(C)C)C(C)(C)C)S(C)(=O)=O` [Example 283], the Ki is below 100 nM. Consider `CN(C[C@@H](NC(=O)N[C@H](C(=O)N1C[C@H]2[C@@H]([C@H]1C(=O)N[C@@H](CC(F)F)C(=O)NCCc1c(Cl)cccc1Cl)C2(C)C)C(C)(C)C)C(C)(C)C)S(C)(=O)=O` [Example 284], for which the Ki was below 100 nM. As to `CN(C[C@@H](NC(=O)N[C@H](C(=O)N1C[C@H]2[C@@H]([C@H]1C(=O)N[C@@H](CC(F)F)C(=O)NCCc1ccc(Cl)c(Cl)c1)C2(C)C)C(C)(C)C)C(C)(C)C)S(C)(=O)=O` [Example 285], the Ki is below 100 nM. The figure for `CCOc1cc(CCNC(=O)[C@H](CC(F)F)NC(=O)[C@@H]2[C@@H]3[C@H](CN2C(=O)[C@@H](NC(=O)N[C@H](CN(C)S(C)(=O)=O)C(C)(C)C)C(C)(C)C)C3(C)C)ccc1OC` [Example 286] is below 100 nM; for `CCOc1ccc(CCNC(=O)[C@H](CC(F)F)NC(=O)[C@@H]2[C@@H]3[C@H](CN2C(=O)[C@@H](NC(=O)N[C@H](CN(C)S(C)(=O)=O)C(C)(C)C)C(C)(C)C)C3(C)C)cc1OC` [Example 287] it is below 100 nM; for `CN(C[C@@H](NC(=O)N[C@H](C(=O)N1C[C@H]2[C@@H]([C@H]1C(=O)N[C@@H](CC(F)F)C(=O)NCCc1ccc(-c3ccccc3)cc1)C2(C)C)C(C)(C)C)C(C)(C)C)S(C)(=O)=O` [Example 288] it is below 100 nM. The figure for `CN(C[C@@H](NC(=O)N[C@H](C(=O)N1C[C@H]2[C@@H]([C@H]1C(=O)N[C@@H](CC(F)F)C(=O)NCCc1ccccc1Br)C2(C)C)C(C)(C)C)C(C)(C)C)S(C)(=O)=O` [Example 289] is below 100 nM; for `CN(C[C@@H](NC(=O)N[C@H](C(=O)N1C[C@H]2[C@@H]([C@H]1C(=O)N[C@@H](CC(F)F)C(=O)NCCc1ccc(Br)cc1)C2(C)C)C(C)(C)C)C(C)(C)C)S(C)(=O)=O` [Example 290] it is below 100 nM; for `CN(C[C@@H](NC(=O)N[C@H](C(=O)N1C[C@H]2[C@@H]([C@H]1C(=O)N[C@@H](CC(F)F)C(=O)NCCc1ccc(Oc3ccccc3)cc1)C2(C)C)C(C)(C)C)C(C)(C)C)S(C)(=O)=O` [Example 291] it is below 100 nM. The figure for `COc1ccc(CCNC(=O)[C@H](CC(F)F)NC(=O)[C@@H]2[C@@H]3[C@H](CN2C(=O)[C@@H](NC(=O)N[C@H](CN(C)S(C)(=O)=O)C(C)(C)C)C(C)(C)C)C3(C)C)cc1Br` [Example 292] is below 100 nM; for `CN(C[C@@H](NC(=O)N[C@H](C(=O)N1C[C@H]2[C@@H]([C@H]1C(=O)N[C@@H](CC(F)F)C(=O)N[C@H]1C[C@@H]1c1ccccc1)C2(C)C)C(C)(C)C)C(C)(C)C)S(C)(=O)=O` [Example 293] it is above 500 nM; for `COc1cc(CCNC(=O)[C@H](CC(F)F)NC(=O)[C@@H]2[C@@H]3[C@H](CN2C(=O)[C@@H](NC(=O)N[C@H](CN(C)S(C)(=O)=O)C(C)(C)C)C(C)(C)C)C3(C)C)ccc1O` [Example 294] it is below 100 nM.
